Laboratory results published in ChEMBL document CHEMBL5252513, “Identification of a Benzoisoxazoloazepine Inhibitor (CPI-0610) of the Bromodomain and Extra-Terminal (BET) Family as a Candidate for Human Clinical Trials” (J Med Chem, 2016).
Activity calls are given as the source filed them. The calls are words filed in the database; no cut-off is given here.

How the values were obtained:
[1] = AUC (0 to infinity) in mouse at 10 mg/kg,sc; type: ADME, organism-based; parameters: dose 10 mg/kg, route sc; settings: in vivo
[2] = tested on: MV4-11; experiment: Antitumor activity against human MV4-11 cells xenografted in BALB/c mouse assessed as modest tumor growth inhibition at 10 mg/kg,sc BID for 28 days; type: functional, organism-based; settings: time 28.0 day
[3] = target: SWI/SNF-related matrix-associated actin-dependent regulator of chromatin subfamily A member 4 (Homo sapiens, UniProt P51532); experiment: Displacement of biotinylated JQ1 from BRG1 bromodomain (unknown origin) incubated for 20 mins by AlphaLISA assay
SWI/SNF-related matrix-associated actin-dependent regulator of chromatin subfamily A member 4, sequence (P51532 whole entry): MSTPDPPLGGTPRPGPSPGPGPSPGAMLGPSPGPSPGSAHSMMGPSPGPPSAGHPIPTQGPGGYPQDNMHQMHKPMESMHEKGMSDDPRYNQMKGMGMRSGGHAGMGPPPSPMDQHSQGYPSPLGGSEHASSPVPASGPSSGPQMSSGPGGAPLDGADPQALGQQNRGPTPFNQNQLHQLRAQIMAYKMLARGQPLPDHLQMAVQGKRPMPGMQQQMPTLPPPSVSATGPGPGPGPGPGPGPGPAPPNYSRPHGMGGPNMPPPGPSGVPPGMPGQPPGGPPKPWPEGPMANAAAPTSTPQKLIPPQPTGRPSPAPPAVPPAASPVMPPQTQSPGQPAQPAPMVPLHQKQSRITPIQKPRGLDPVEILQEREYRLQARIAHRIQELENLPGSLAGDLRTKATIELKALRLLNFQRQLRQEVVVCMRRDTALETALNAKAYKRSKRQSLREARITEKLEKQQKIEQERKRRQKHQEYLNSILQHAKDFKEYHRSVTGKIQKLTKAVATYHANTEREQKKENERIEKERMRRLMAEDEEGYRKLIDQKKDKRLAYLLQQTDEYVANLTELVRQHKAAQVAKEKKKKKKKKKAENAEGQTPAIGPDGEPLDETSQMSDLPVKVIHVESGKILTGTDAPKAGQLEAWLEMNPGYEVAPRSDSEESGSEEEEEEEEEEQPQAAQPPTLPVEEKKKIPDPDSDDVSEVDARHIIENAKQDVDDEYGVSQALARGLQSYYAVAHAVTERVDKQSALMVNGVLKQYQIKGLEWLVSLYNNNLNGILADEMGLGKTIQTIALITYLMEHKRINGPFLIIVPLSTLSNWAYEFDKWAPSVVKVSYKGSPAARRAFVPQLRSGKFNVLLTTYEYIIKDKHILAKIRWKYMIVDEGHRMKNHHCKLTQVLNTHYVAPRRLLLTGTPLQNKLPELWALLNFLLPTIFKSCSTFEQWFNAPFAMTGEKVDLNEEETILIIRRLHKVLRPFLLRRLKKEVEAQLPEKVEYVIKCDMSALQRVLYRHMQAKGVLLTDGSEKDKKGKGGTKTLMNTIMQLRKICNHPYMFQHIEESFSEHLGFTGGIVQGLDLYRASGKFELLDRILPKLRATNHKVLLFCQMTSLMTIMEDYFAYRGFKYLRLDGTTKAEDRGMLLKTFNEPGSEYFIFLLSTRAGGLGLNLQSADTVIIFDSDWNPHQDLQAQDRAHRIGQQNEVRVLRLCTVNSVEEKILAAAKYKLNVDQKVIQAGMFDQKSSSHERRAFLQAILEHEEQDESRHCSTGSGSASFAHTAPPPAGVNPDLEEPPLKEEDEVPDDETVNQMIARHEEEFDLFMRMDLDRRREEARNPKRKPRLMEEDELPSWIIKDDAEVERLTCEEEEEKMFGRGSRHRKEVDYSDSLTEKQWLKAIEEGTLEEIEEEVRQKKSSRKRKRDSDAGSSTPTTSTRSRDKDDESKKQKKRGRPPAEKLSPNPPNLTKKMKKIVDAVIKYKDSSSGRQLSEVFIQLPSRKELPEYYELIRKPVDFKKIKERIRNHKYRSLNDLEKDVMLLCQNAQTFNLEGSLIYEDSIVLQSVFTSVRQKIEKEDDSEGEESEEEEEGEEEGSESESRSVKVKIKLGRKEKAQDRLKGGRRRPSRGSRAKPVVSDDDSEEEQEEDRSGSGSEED

Cc1noc2c1-c1ccccc1C(c1ccc(Cl)cc1)=N[C@H]2CC(N)=O [PELABRESIB]
AUC(0-inf) [1]: 49 µM·h | Activity [2]: Active | IC50 [3]: > 20 µM
